Experimental data reported in patent US4536518A, “Antidepressant derivatives of cis-4-phenyl-1,2,3,4-tetrahydro-1-naphthalenamine” (priority 1979, dated 1985).
Structures can show the parent of a compound that is named as a salt. Where two headings read alike, the source gives them in different places.

Tests used:
[1] = tested on: Synaptosomal Uptake of Dopamine (DA), rat corpus striatum; assay: Blockade of synaptosomal uptake of dopamine (DA) in vitro; type: biochemical, rat (Sprague-Dawley CD)
Procedure: (§1) Sprague-Dawley CD male rats weighing 180-220 g. (Charles River Laboratories, Inc.; Wilmington, Mass.) were used in this procedure. A crude synaptosomal fraction of rat corpus striatum (for 5HT and DA uptake) or hypothalmus (for NE uptake) tissue was prepared by homogenizing tissue (25 ml./g. wet) in ice-cold 0.32M sucrose containing 1 mg./ml. glucose, 0.0001M EDTA and tris(hydroxymethyl)aminomethane to pH 7.4. The homogenate was centrifuged at 1000 × g for 10 min. at 0°-4° C., the pellet discarded and the supernatant centrifuged at 17,000 × g for 20 min. at 0°-4° C. The resulting pellet was resuspended in the ice-cold 0.32M sucrose pH 7.4 solution at 10 ml./g. original tissue (wet) for corpus striatum and 5 ml./g. original tissue (wet) for hypothalmus. […] After incubation, the mixtures were filtered through 0.45 micron Millipore filters and the filters washed with the incubation buffer. […] Uptake was calculated as picomoles 5HT, DA or NE per mg. protein (protein was determined by measurement with Folin phenol reagent).

[2] = tested on: Synaptosomal Uptake of Norepinephrine (NE), rat hypothalmus; assay: Blockade of synaptosomal uptake of norepinephrine (NE) in vitro; type: biochemical, rat (Sprague-Dawley CD)
Procedure: as §1

[3] = tested on: 5-hydroxytryptophan-induced tremors in mice; assay: Potentiation of 5-hydroxytryptophan-induced behavioral symptoms (tremors) in vivo; parameters: species or system mouse (Swiss-Webster CD); conditions: Mus musculus
Procedure: The mice were rated for the presence of this symptom by a "blinded observer" at 10-20 min. after 5HTP treatment.

[4] = tested on: Synaptosomal Uptake of Serotonin (5HT), rat corpus striatum; assay: Blockade of synaptosomal uptake of serotonin (5HT) in vitro; type: biochemical, rat (Sprague-Dawley CD); conditions: 5HT uptake, Examples 26-49
Procedure: as §1

[5] = tested on: Behavioral Despair in mice; assay: Reduction of behavioral despair in vivo (modified Porsolt method); parameters: species or system mouse (Swiss-Webster CD); conditions: for ED50: Mus musculus, sc, mice, subcutaneous
Procedure: A modification of the procedure described by Porsolt et al., Arch. Int. […] (Charles River Laboratories, Inc.; Wilmington, Mass.) were housed under standard laboratory conditions for at least one week prior to experimentation. Groups of 10 mice were then injected subcutaneously with either a given dosage of the named test compound or vehicle (5% Emulphor: 5% ethanol: 90% normal saline). One hour later the mice were placed individually in 1 liter beakers containing 7 cm. of 25° C. water. Beginning at 2 min. after immersion, each mouse was observed every 30 sec. for the presence of immobility, characterized as floating motionless in the water. A total of ten observations were made, each being scored as "0=animal moving, swimming, attempting to escape" or "1=animal immobile". The number of positive observations for each mouse was then totaled and a mean immobility score calculated for the group of ten.

uptake of serotonin = conditions: background; cited from earlier work
[6] = tested on: synaptosomal norepinephrine uptake; conditions: prior art; cited from earlier work
[7] = 1 h, mice, oral, 100 mg./kg. i.p. 5HTP one hour later, read-out: ED50 (tremors)
[8] = po, read-out: ED50 (tremors), no observed tremors
[9] = read-out: MPE50, footnoted no observed effect on immobility
[10] = po, 1 h, read-out: ED50 (tremors)
[11] = mice, oral, read-out: ED50 (tremors), no observed tremors
[12] = Examples 71-77, read-out: MPE50

Compound | IC50 ([1]; Examples 26-49) [nM] | IC50 ([2]; Examples 26-49) [nM] | IC50 [4] [nM] | also measured
CN[C@H]1CC[C@@H](c2ccc(C(F)(F)F)cc2)c2ccccc21 [Example 9] | 6400 | 9400 |  | ED50 [3, 7]: < 32 mg/kg
CN[C@H]1CC[C@@H](c2ccccc2)c2ccccc21 (relative stereo) [Comparative Example, Cis(1S) (1R)N--methyl-4-phenyl-1,2,3,4-tetrahydro-1-naphthalenamin hydrochloride, reference compound] | 5100 | 1900 | 3500 | ED50 [3, 8]: > 32 mg/kg; ED50 [5, 9]: > 32 mg/kg
CN[C@@H]1CC[C@H](c2ccc(Cl)c(C(F)(F)F)c2)c2ccccc21 (relative stereo) [Example 12, Cis-N-methyl-4-(3-trifluoromethyl-4-chlorophenyl)-1,2,3,4-tetrahydro-1-naphthalenamine] | 1500 |  |  | ED50 [3, 7]: 1 to 3.2 mg/kg
CN(C)[C@H]1CC[C@@H](c2cccc(C(F)(F)F)c2)c2ccccc21 (relative stereo) [Example 22, Cis-(1S)(1R)-N,N-dimethyl-4-(3-trifluoromethylphenyl)-1,2,3,4-tetrahydro-1-naphthalenamine Maleate] | 7000 | 890 | 190 | ED50 [3, 10]: 3.2 to 10 mg/kg; ED50 [5, 9]: > 56 mg/kg
CN[C@@H]1CC[C@H](c2ccc(Cl)cc2)c2ccccc21.Cl (relative stereo) [Example 5, Cis-N-methyl-4-(4-chlorophenyl)-1,2,3,4-tetrahydro-1-naphthalenamine Hydrochloride] |  |  |  | IC50 ([2]; Examples 26-49, Hydrochloride): 5000 nM; ED50 [3, 11]: > 10 mg/kg
CN[C@H]1CC[C@@H](c2ccccc2OC)c2ccccc21 (relative stereo) [Example 18] | 11000 | 2300 | 4200 | ED50 [3, 11]: > 32 mg/kg; ED50 [5, 12]: > 32 mg/kg
CN[C@H]1CC[C@@H](c2ccc(Br)cc2)c2ccccc21 (relative stereo) [Example 16, Cis-(1S)(1R)-N-methyl-4-(4-bromophenyl)-1,2,3,4-tetrahydro-1-naphthalenamine Hydrochloride] | 1600 | 1400 | 190 | 
CN[C@@H]1CC[C@H](c2cccc(C(F)(F)F)c2)c2ccccc21 (relative stereo) [Example 11, Cis-N-methyl-4-(3-trifluoromethyl-phenyl)-1,2,3,4-tetrahydro-1-naphthalenamine] | 2500 | 2500 | 250 | ED50 [3, 10]: 10 to 32 mg/kg; % MPE ([5]; 32.0 mg./kg. subcutaneous): 45%; % MPE ([5]; 56.0 mg./kg. subcutaneous, apparent overdosage): 10%; ED50 [5, 12]: 42 mg/kg
CN(C)C/C=C(/c1ccc(Br)cc1)c1cccnc1 [zimelidine] |  |  |  | serotonin uptake blockade compared to norepinephrine blockade (in words) (uptake of serotonin): selectively block the uptake of serotonin
CN[C@H]1CC[C@@H](c2ccc(F)cc2)c2ccccc21 (relative stereo) [Example 7, Cis-(1S)(1R)-N-methyl-4-(4-fluorophenyl)-1,2,3,4-tetrahydro-1-naphthalenamine Hydrochloride] | 4700 | 2300 |  | ED50 [3, 8]: > 32 mg/kg; ED50 [5, 12]: 138 mg/kg
CN(C)[C@H]1CC[C@@H](c2ccc(C(F)(F)F)cc2)c2ccccc21 (relative stereo) [Example 23] | 12000 | 14000 |  | ED50 [3, 10]: 32 to 56 mg/kg
CN[C@H]1CC[C@@H](c2ccc(C(F)(F)F)cc2)c2ccccc21 (relative stereo) [Example 8] | 7800 | 9800 | 820 | ED50 [3, 7]: 10 to 32 mg/kg
CN[C@H]1CC[C@@H](c2cccc(OC)c2)c2ccccc21 (relative stereo) [Example 19] | 5000 | 1400 | 7600 | 
CN[C@H]1CC[C@@H](c2ccc(Cl)cc2)c2ccc(Cl)cc21 (relative stereo) [Example 15, Cis-(1S)(1R)-N-methyl-4-(4-chlorophenyl)-7-chloro-1,2,3,4-tetrahydro-1-naphthalenamine Hydrochloride] | 1300 | 2200 | 300 | 
CN[C@@H]1CC[C@H](c2ccc(Cl)cc2)c2ccccc21.Cl (relative stereo) [Example 4, Cis-N-methyl-4-(4-chlorophenyl)-1,2,3,4-tetrahydro-1-naphthalenamine Hydrochloride] |  |  |  | ED50 [3, 10]: 10 to 32 mg/kg
CN[C@H]1CC[C@@H](c2ccc(Cl)cc2)c2ccc(OC)cc21 (relative stereo) [Example 21, Cis-(1S) (1R)-N-methyl-4-(4-chlorophenyl)-7-methoxy-1,2,3,4-tetrahydro-1-naphthalenamine Hydrochloride] | 440 | 470 | 190 | 
CN[C@H]1CC[C@@H](c2ccc(OC)cc2)c2ccccc21 (relative stereo) [Example 17, Cis-(1S)(1R)-N-methyl-4-(4-methoxyphenyl)-1,2,3,4-tetrahydro-1-naphthalenamine Hydrochloride] | 4200 | 3000 |  | 
CN[C@H]1CC[C@@H](c2ccc(Cl)c(C(F)(F)F)c2)c2ccccc21 [Example 13] | 6800 | 3600 |  | ED50 [3, 10]: 3.2 to 10 mg/kg
CN[C@@H]1CC[C@H](c2ccc(C(F)(F)F)cc2)c2ccccc21 [Example 10] | 5600 | 12000 | 2200 | ED50 [3, 11]: > 32 mg/kg
CN[C@@H]1CC[C@@H](c2ccccc2)c2ccccc21 [trans-(1R)-N-methyl-4-phenyl-1,2,3,4-tetrahydro-1-naphthalenamine] |  |  |  | synaptosomal norepinephrine uptake blocking activity (in words) [6]: excellent
CN(C)[C@@H]1CC[C@H](c2ccc(Cl)cc2)c2ccccc21 (relative stereo) [Example 24, Cis-N,N-dimethyl-4-(4-chlorophenyl)-1,2,3,4-tetrahydro-1-naphthalenamine] | 5600 | 1200 |  | 
CN[C@H]1CC[C@@H](c2ccc(Cl)c(Cl)c2)c2ccccc21 (relative stereo) [Example 1, Cis-(1S)(1R)-N-methyl-4-(3,4-dichlorophenyl)-1,2,3,4-tetrahydro-1-naphthalenamine Hvdrochloride] |  |  |  | ED50 [3, 10]: 3.2 to 5.6 mg/kg; ED50 [5, 12]: 4.5 mg/kg
CN[C@H]1CC[C@@H](c2ccc(Cl)cc2Cl)c2ccccc21 (relative stereo) [Example 20, Cis-(1S)(1R)-N-methyl-4-(2,4-dichlorophenyl)-1,2,3,4-tetrahydro-1-naphthalenamine Hydrochloride] | 1700 | 310 |  | 
COCCCC/C(=N\OCCN)c1ccc(C(F)(F)F)cc1 [fluvoxamine] |  |  |  | serotonin uptake blockade compared to norepinephrine blockade (in words) (uptake of serotonin): selectively block the uptake of serotonin
CN[C@@H]1CC[C@H](c2ccc(Cl)c(C(F)(F)F)c2)c2ccccc21 [Example 14] | 550 | 2400 |  | ED50 [3, 11]: > 32 mg/kg
CN[C@@H]1CC[C@H](c2ccc(Cl)cc2)c2ccccc21 (relative stereo) [Example 6, Cis-N-methyl-4-(4-chlorophenyl)-1,2,3,4-tetrahydro-1-naphthalenamine Hydrochloride] |  |  |  | IC50 ([1]; Examples 26-49, Hydrochloride): 1500 nM; IC50 ([2]; Examples 26-49, Hydrochloride): 1200 nM
CN[C@H]1CC[C@@H](c2ccc(Cl)c(Cl)c2)c2ccccc21.Cl [Example 2, Cis-(1S)-N-methyl-4-(3,4-dichlorophenyl)-1,2,3,4-tetrahydro-1-naphthalenamine Hydrochloride] |  |  |  | % MPE ([5]; 0.10 mg./kg. subcutaneous): 7.9%; % MPE ([5]; 0.32 mg./kg. subcutaneous): 24%; % MPE ([5]; 1.00 mg./kg. subcutaneous): 17%; % MPE ([5]; 3.20 mg./kg. subcutaneous): 41%; % MPE ([5]; 10.0 mg./kg. subcutaneous): 57%; % MPE ([5]; 17.8 mg./kg. subcutaneous): 57%; % MPE ([5]; 32.0 mg./kg. subcutaneous): 66%
